Results reported in ChEMBL document CHEMBL5120793, “A Natural Plant Ingredient, Menthone, Regulates T Cell Subtypes and Lowers Pro-inflammatory Cytokines of Rheumatoid Arthritis” (J Nat Prod, 2022).
Active and inactive are the calls of the source.

Assays:
Mus musculus [1] = assay: Antiarthritic activity against collagen-II induced rheumatoid arthritis DBA-1 mouse blood CD4+ T cells assessed as reduction in RORgammaT mRNA level at 100 mg/kg administered for 14 days on day 60 to day 74 post-immunization by RT-qPCR assay; format: functional, organism-based; details: T-cell, time 14.0 day
Mus musculus [2] = assay: Antiarthritic activity against collagen-II induced rheumatoid arthritis DBA-1 mouse model assessed as reduction in serum IL-6 level at 100 mg/kg administered for 14 days on day 60 to day 74 post-immunization by ELISA; format: functional, organism-based; details: time 14.0 day
Mus musculus [3] = assay: Antiarthritic activity against collagen-II induced rheumatoid arthritis DBA-1 mouse blood CD4+ T cells assessed as increase in GATA3 mRNA level at 100 mg/kg administered for 14 days on day 60 to day 74 post-immunization by RT-qPCR assay; format: functional, organism-based; details: T-cell, time 14.0 day
Mus musculus [4] = assay: Antiarthritic activity against collagen-II induced rheumatoid arthritis DBA-1 mouse model assessed as reduction in blood IL-1beta mRNA level at 100 mg/kg administered for 14 days on day 60 to day 74 post-immunization by RT-qPCR assay; format: functional, organism-based; details: time 14.0 day
Mus musculus [5] = assay: Antiarthritic activity against collagen-II induced rheumatoid arthritis DBA-1 mouse model assessed as reduction in serum TNF-alpha level at 100 mg/kg administered for 14 days on day 60 to day 74 post-immunization by ELISA; format: functional, organism-based; details: time 14.0 day
CD4+ve Th [6] = assay: Antiinflammatory activity against PMA induced DBA-1 mouse spleen CD4+ve Th cells assessed as reduction in TNF-alpha mRNA level at 50 to 100 uM incubated for 24 hrs by RT-qPCR assay; format: functional, cell-based; details: dose 50-100 µM
Mus musculus [7] = assay: Antiarthritic activity against collagen-II induced rheumatoid arthritis DBA-1 mouse blood CD4+ T cells assessed as reduction in Th17 cells differentiation at 100 mg/kg administered for 14 days on day 60 to day 74 post-immunization by flow cytometry analysis; format: functional, organism-based; details: T-cell, time 14.0 day
Mus musculus [8] = assay: Antiarthritic activity against collagen-II induced rheumatoid arthritis DBA-1 mouse model assessed as reduction in synovial hyperplasia at 100 mg/kg administered for 14 days on day 60 to day 74 post-immunization; format: functional, organism-based; details: time 14.0 day
Mus musculus [9] = assay: Antiarthritic activity against collagen-II induced rheumatoid arthritis DBA-1 mouse model assessed as reduction in TNF-alpha protein level at 100 mg/kg administered for 14 days on day 60 to day 74 post-immunization by immunohistochemistry analysis; format: functional, organism-based; details: time 14.0 day
Mus musculus [10] = assay: Antiarthritic activity against collagen-II induced rheumatoid arthritis DBA-1 mouse model assessed as reduction in damage of articular cartilage at 100 mg/kg administered for 14 days on day 60 to day 74 post-immunization; format: functional, organism-based; details: time 14.0 day
Mus musculus [11] = assay: Antiarthritic activity against collagen-II induced rheumatoid arthritis DBA-1 mouse spleen CD4+ T cells assessed as reduction in Th17 cells differentiation at 100 mg/kg administered for 14 days on day 60 to day 74 post-immunization by flow cytometry analysis; format: functional, organism-based; details: T-cell, time 14.0 day
Mus musculus [12] = assay: Antiarthritic activity against collagen-II induced rheumatoid arthritis DBA-1 mouse spleen CD4+ T cells assessed as increase in Foxp3 mRNA level at 100 mg/kg administered for 14 days on day 60 to day 74 post-immunization by RT-qPCR assay; format: functional, organism-based; details: T-cell, time 14.0 day
Mus musculus [13] = assay: Antiarthritic activity against collagen-II induced rheumatoid arthritis DBA-1 mouse model assessed as reduction in serum IL-1beta level at 100 mg/kg administered for 14 days on day 60 to day 74 post-immunization by ELISA; format: functional, organism-based; details: time 14.0 day
Mus musculus [14] = assay: Antiarthritic activity against collagen-II induced rheumatoid arthritis DBA-1 mouse model assessed as reduction in clinical score at 100 mg/kg administered for 14 days on day 60 to day 74 post-immunization; format: functional, organism-based; details: time 14.0 day
Mus musculus [15] = assay: Antiarthritic activity against collagen-II induced rheumatoid arthritis DBA-1 mouse blood CD4+ T cells assessed as reduction in Th1 cells differentiation at 100 mg/kg administered for 14 days on day 60 to day 74 post-immunization by flow cytometry analysis; format: functional, organism-based; details: T-cell, time 14.0 day
Mus musculus [16] = assay: Antiarthritic activity against collagen-II induced rheumatoid arthritis DBA-1 mouse model assessed as reduction in blood IL-6 mRNA level at 100 mg/kg administered for 14 days on day 60 to day 74 post-immunization by RT-qPCR assay; format: functional, organism-based; details: time 14.0 day
Mus musculus [17] = assay: Antiarthritic activity against collagen-II induced rheumatoid arthritis DBA-1 mouse spleen CD4+ T cells assessed as reduction in Th1 cells differentiation at 100 mg/kg administered for 14 days on day 60 to day 74 post-immunization by flow cytometry analysis; format: functional, organism-based; details: T-cell, time 14.0 day
Mus musculus [18] = assay: Antiarthritic activity against collagen-II induced rheumatoid arthritis DBA-1 mouse spleen CD4+ T cells assessed as increase in GATA3 mRNA level at 100 mg/kg administered for 14 days on day 60 to day 74 post-immunization by RT-qPCR assay; format: functional, organism-based; details: T-cell, time 14.0 day
Mus musculus [19] = assay: Antiarthritic activity against collagen-II induced rheumatoid arthritis DBA-1 mouse blood CD4+ T cells assessed as reduction in T-bet mRNA level at 100 mg/kg administered for 14 days on day 60 to day 74 post-immunization by RT-qPCR assay; format: functional, organism-based; details: T-cell, time 14.0 day
CD4+ve Th [20] = assay: Antiinflammatory activity against PMA induced DBA-1 mouse spleen CD4+ve Th cells assessed as reduction in IL-6 mRNA level at 50 to 100 uM incubated for 24 hrs by RT-qPCR assay; format: functional, cell-based; details: dose 50-100 µM
Mus musculus [21] = assay: Antiarthritic activity against collagen-II induced rheumatoid arthritis DBA-1 mouse blood CD4+ T cells assessed as increase in Foxp3 mRNA level at 100 mg/kg administered for 14 days on day 60 to day 74 post-immunization by RT-qPCR assay; format: functional, organism-based; details: T-cell, time 14.0 day
Mus musculus [22] = assay: Antiarthritic activity against collagen-II induced rheumatoid arthritis DBA-1 mouse model assessed as reduction in IL-1beta protein level at 100 mg/kg administered for 14 days on day 60 to day 74 post-immunization by immunohistochemistry analysis; format: functional, organism-based; details: time 14.0 day
Mus musculus [23] = assay: Antiarthritic activity against collagen-II induced rheumatoid arthritis DBA-1 mouse model assessed as reduction in blood TNF-alpha mRNA level at 100 mg/kg administered for 14 days on day 60 to day 74 post-immunization by RT-qPCR assay; format: functional, organism-based; details: time 14.0 day
Mus musculus [24] = assay: Antiarthritic activity against collagen-II induced rheumatoid arthritis DBA-1 mouse spleen CD4+ T cells assessed as reduction in RORgammaT mRNA level at 100 mg/kg administered for 14 days on day 60 to day 74 post-immunization by RT-qPCR assay; format: functional, organism-based; details: T-cell, time 14.0 day
Mus musculus [25] = assay: Antiarthritic activity against collagen-II induced rheumatoid arthritis DBA-1 mouse spleen CD4+ T cells assessed as reduction in T-bet mRNA level at 100 mg/kg administered for 14 days on day 60 to day 74 post-immunization by RT-qPCR assay; format: functional, organism-based; details: T-cell, time 14.0 day
Mus musculus [26] = assay: Antiarthritic activity against collagen-II induced rheumatoid arthritis DBA-1 mouse model assessed as reduction in IL-17 protein level at 100 mg/kg administered for 14 days on day 60 to day 74 post-immunization by immunohistochemistry analysis; format: functional, organism-based; details: time 14.0 day
CD4+ve Th [27] = assay: Antiinflammatory activity against PMA induced DBA-1 mouse spleen CD4+ve Th cells assessed as reduction in IL-1beta mRNA level at 50 to 100 uM incubated for 24 hrs by RT-qPCR assay; format: functional, cell-based; details: dose 50-100 µM

Measured: Activity

CC(C)[C@@H]1CC[C@@H](C)CC1=O
active: all assays above
